These results are taken from ChEMBL document CHEMBL3868594, “From lead optimization to NDA approval for a new antimicrobial: Use of pre-clinical effect models and pharmacokinetic/pharmacodynamic mathematical modeling” (2016).

Molecules are shown by their SMILES.

Holding throughout (assay type): functional
In test [1] the test system is Mycobacterium tuberculosis. Kind of test: Antibacterial activity against linezolid-resistant Mycobacterium tuberculosis H37Rv in hollow-fiber infection model assessed as reduction in bacterial burden at 858 mg, po at 24 hrs dose regimen measured after 3 weeks.
Test [2] has as its system Mycobacterium tuberculosis. Kind of test: Antibacterial activity against linezolid-resistant Mycobacterium tuberculosis H37Rv in hollow-fiber infection model assessed as reduction in bacterial burden at 1116 mg, po at 24 hrs dose regimen measured after 3 weeks.
Test [3] deals with Mycobacterium tuberculosis. Kind of test: Antibacterial activity against linezolid-resistant Mycobacterium tuberculosis H37Rv in hollow-fiber infection model assessed as reduction in bacterial burden at 342 mg, po at 24 hrs dose regimen measured after 3 weeks.
Test [4] concerns Mycobacterium tuberculosis. Kind of test: Antibacterial activity against linezolid-resistant Mycobacterium tuberculosis H37Rv in hollow-fiber infection model assessed as reduction in bacterial burden at 600 mg, po at 24 hrs dose regimen measured after 3 weeks.

In the case of `CC(=O)NC[C@H]1CN(c2ccc(N3CCOCC3)c(F)c2)C(=O)O1` [LINEZOLID], the Activity in test [1] was found to be 3 log10CFU/ml; in test [2] it was 3 log10CFU/ml; in test [3], 0.5 log10CFU/ml; in test [4], 1.7 log10CFU/ml.
